According to patent publication US9067898B1, “Isothiazole derivatives as GPR120 agonists for the treatment of type II diabetes” (Janssen Pharmaceutica NV, priority 2014, dated 2015):
pEC50: −log10 of the molar value.

Assays:
[1] = molecular target: T1, long form of human GPR120 (Homo sapiens, UniProt Q5NUL3); experiment: Human GPR120 DiscoveRx PathHunter Beta-Arrestin assay, Procedure β-arrestin A; assay type: cell-based; details: PathHunter CHO-K1 GPR120 β-Arrestin cell line, 3000 cells per well, read-out: hGPR120 β-arrestin A EC50
T1 construct: host or cells: PathHunter CHO-K1 GPR120 β-Arrestin Cell Line
T1 sequence (Q5NUL3 1-377 isoform Q5NUL3-1): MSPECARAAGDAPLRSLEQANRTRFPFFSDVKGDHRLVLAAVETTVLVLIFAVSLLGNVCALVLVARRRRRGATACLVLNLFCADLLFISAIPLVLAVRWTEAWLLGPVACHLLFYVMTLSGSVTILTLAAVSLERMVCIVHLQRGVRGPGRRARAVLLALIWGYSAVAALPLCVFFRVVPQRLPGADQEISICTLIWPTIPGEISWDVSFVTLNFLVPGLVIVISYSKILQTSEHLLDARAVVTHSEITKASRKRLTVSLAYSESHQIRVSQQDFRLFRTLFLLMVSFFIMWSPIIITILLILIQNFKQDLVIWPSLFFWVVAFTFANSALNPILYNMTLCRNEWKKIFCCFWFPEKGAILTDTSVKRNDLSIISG
T1 sequence (P32121 whole entry partner): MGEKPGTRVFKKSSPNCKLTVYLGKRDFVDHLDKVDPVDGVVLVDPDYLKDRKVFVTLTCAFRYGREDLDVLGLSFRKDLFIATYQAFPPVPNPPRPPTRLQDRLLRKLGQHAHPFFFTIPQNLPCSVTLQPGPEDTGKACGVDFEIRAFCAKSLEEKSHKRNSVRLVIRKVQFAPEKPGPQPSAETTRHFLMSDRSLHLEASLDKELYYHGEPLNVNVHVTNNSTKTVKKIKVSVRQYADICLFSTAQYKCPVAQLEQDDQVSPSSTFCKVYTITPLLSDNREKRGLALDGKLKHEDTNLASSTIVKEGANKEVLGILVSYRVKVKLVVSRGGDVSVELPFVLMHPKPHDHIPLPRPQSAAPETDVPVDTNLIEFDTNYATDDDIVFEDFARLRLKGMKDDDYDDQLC
Source text: The binding of an agonist (medium/long chain fatty acids or small molecule agonists) to the G-protein-coupled receptor GPR120 activates phospholipase C, leading to release of intracellular Ca^+2 through the generation of inositol 1,4,5-trisphosphate (InsP3 or IP3). GPR120 activation can also trigger intracellular signaling via recruitment of Beta-Arrestin. In the present method, agonist-induced activation of the human GPR120 receptor is monitored through the use of PathHunter CHO-K1 GPR120 Beta-Arrestin Cell Line engineered by DiscoveRx, as detailed below. The cell lines are designed to co-express both the ProLink/Enzyme Donor (PK)-tagged GPCR and the Enzyme […] (EA)-tagged Beta-Arrestin fusion proteins. Upon GPR120 receptor stimulation/activation, the EA-tagged Beta-Arrestin portion is translocated to the tagged receptor, where the two enzyme fragments are brought within close proximity. Under these conditions, these fragments can interact and form an active Beta-gal enzyme complex through Enzyme Fragment Complementation (EFC). This active Beta-gal complex can enzymatically hydrolyse the substrate to produce a detectable light signal; therefore, activation as a function of agonist concentration can be expressed as an EC50 value to determine relative compound activities. This in vitro assay therefore serves to assess compound agonist activity of the GPR120. Procedure β-Arrestin A: In Procedure β-arrestin A, the cell used were PathHunter CHO-K1 GPR120 β-Arrestin Cell Line, expressing the long form of human GPR120 (Genbank accession number NM 181745), with 3000 cells per well. Procedure β-Arrestin B: In Procedure 3-arrestin B the cells used were PathHunter CHO-K1 GPR120S β-Arrestin Cell Line, expressing the short form of the GPR120 receptor (Accession #NM_181745), with 5000 cells/well. Assay Procedure:
The selected CHO-K1 GPR120 β-Arrestin cells were cultured in Ham's F12 media supplemented with 10% fetal bovine serum (FBS), 1% Glutamine, lx p/s, 800 μg/mL G418 and 300 μg/mL Hygromycin B (for selection). Cell stocks were maintained and grown in a sub-confluent state using standard cell culture procedures. The day before the experiment, the cells were harvested with non-enzymatic cell dissociation buffer and re-suspended in complete growth media at the desired concentration. A Corning 384-plate was then seeded with the proper number of cells in a volume of 25 μL, per well. The seeded plates were incubated overnight at 37° C.
On the day of the experiment, the Assay Buffer containing (a) HBSS with Ca^++ and Mg^++, (b) 20 mM HEPES, and (c) 0.1% BSA stabilizer (pH 7.4) was prepared. The growth medium was gently removed from the cell plates and 20 μL of Assay Buffer added to each well. The plate was then incubated at 37° C. for 60 min. Test compounds were serially diluted in Assay Buffer to desired concentrations (more particularly to one or more of the following μM concentrations: 25, 12.5, 6.25, 3.125, 1.5625, 0.78125, 0.390625, 0.1953125, 0.09765625, 0.048828125, 0.024414063, 0.012207031). Five μL of compound dilution was then added to each well and the plate incubated at 37° C. for 90 min. The detection reagents were prepared according to the manufacture's instruction. Twelve μL of the detection reagents were added to each well and the plate incubated at room temperature for 60 min.
The plates were read on an EnVision instrument, using Protocol name: Luminescence, Plate type: 384 Costar, Measurement height: 3 mm, Measurement time: 1 s, Aperture: 384 Plate aperture. The % activity relative to the positive control was calculated using the following equation:
The % Activity values were plotted versus the concentration of test compound and fitted to a sigmoidal dose-response curve with a Hill slope=1 (fixed value) using nonlinear regression with GraphPad Prism 5.0 to calculate the EC50 values. […]

[2] = molecular target: T2, Human GPR120 short form (Homo sapiens, UniProt Q5NUL3); experiment: Human GPR120 calcium flux assay (FLIPR), Procedure Calcium A; assay type: cell-based; details: HEK-293 cells expressing human GPR120 short form, 2500 cells/well; read-out: GPR120 Ca2+ Assay A EC50
T2 construct: expressed in transfected cells
T2 sequence (Q5NUL3 1-361): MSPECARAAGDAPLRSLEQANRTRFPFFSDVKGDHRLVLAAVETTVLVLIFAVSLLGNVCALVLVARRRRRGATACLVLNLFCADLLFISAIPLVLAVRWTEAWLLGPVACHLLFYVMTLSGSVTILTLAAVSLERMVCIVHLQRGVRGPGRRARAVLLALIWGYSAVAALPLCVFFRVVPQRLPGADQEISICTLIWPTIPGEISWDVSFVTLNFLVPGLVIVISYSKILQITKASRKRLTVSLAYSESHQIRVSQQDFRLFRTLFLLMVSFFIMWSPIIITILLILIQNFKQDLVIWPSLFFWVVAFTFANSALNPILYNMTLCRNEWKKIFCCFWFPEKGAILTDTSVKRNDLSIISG
Method in brief: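 HEK293 cells stably expressing the short isoform (NM_001195755.1), 2500/well, starved 1 h, then loaded with Fluo-4 NW plus probenecid (30 min 37 °C, 15 min RT). Compound solutions 0.012–100 μM, 0.2% DMSO final; FLIPR read 300 s after addition. EC50 from Fmax−Fmin fitted to variable-slope sigmoid (Hill <2).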

CCc1ccc(-c2cc(Cl)sc2COc2ccc(CCCO)c(F)c2F)cc1 [Cpd 14, 3-(4-[[5-chloro-3-(4-ethylphenyl)thiophen-2-yl]methoxy]-2,3-difluorophenyl)propan-1-ol]
pEC50 [1]: 6.58
pEC50 [2]: 6.79

OCCCc1cc(F)c(OCc2sc(Cl)cc2-c2ccc(Cl)cc2)c(F)c1 [Cpd 19, 3-(4-[[5-chloro-3-(4-chlorophenyl)thiophen-2-yl]methoxy]-3,5-difluorophenyl)propan-1-ol]
pEC50 [1]: 6.97
pEC50 [2]: 6.20

CCc1ccc(-c2ccsc2COc2c(F)cc(CCCO)cc2F)cc1 [Cpd 20, 3-(4-[[3-(4-ethylphenyl)thiophen-2-yl]methoxy]-3,5-difluorophenyl)propan-1-ol]
pEC50 [1]: 6.77
pEC50 [2]: 6.18

O=C(O)CCc1cc(F)c(OCc2c(C3=CCCC3)csc2C(F)(F)F)c(F)c1 [Cpd 31, 3-(4-((4-(cyclopent-1-en-1-yl)-2-(trifluoromethyl)thiophen-3-yl)methoxy)-3,5-difluorophenyl)propanoic acid]
pEC50 [1]: 6.30
pEC50 [2]: 7.34

CCc1ccc(-c2sc(C)c(C(F)(F)F)c2COc2c(F)cc(CCCO)cc2F)cc1 [Cpd 32, 3-(4-[[2-(4-ethylphenyl)-5-methyl-4-(trifluoromethyl)thiophen-3-yl]methoxy]-3,5-difluorophenyl)propan-1-ol]
pEC50 [1]: 7.51
pEC50 [2]: 7.32

COc1ccc(-c2csc(C(F)(F)F)c2COc2c(F)cc(CCC(=O)O)cc2F)cc1 [Cpd 34, 3-(3,5-difluoro-4-((4-(4-methoxyphenyl)-2-(trifluoromethyl)thiophen-3-yl)methoxy)phenyl)propanoic acid]
pEC50 [1]: 6.68
pEC50 [2]: 7.19

O=C(O)CCc1cc(F)c(OCc2c(-c3ccc(Cl)cc3)csc2C(F)(F)F)c(F)c1 [Cpd 35, 3-(4-((4-(4-chlorophenyl)-2-(trifluoromethyl)thiophen-3-yl)methoxy)-3,5-difluorophenyl)propanoic acid]
pEC50 [1]: 6.57
pEC50 [2]: 7.15

COc1ccc(-c2csc(C(F)(F)F)c2COc2c(F)cc(CCCO)cc2F)cn1 [Cpd 38, 3-(3,5-difluoro-4-((4-(6-methoxypyridin-3-yl)-2-(trifluoromethyl)thiophen-3-yl)methoxy)phenyl)propan-1-61]
pEC50 [1]: 7.15
pEC50 [2]: 7.00

CCc1ccc(-c2cscc2COc2ccc(CCC(=O)O)c(C)c2C)cc1 [Cpd 41, 3-(4-((4-(4-ethylphenyl)thiophen-3-yl)methoxy)-2,3-dimethylphenyl)propanoic acid]
pEC50 [1]: 6.15
pEC50 [2]: 6.85

COc1ccc(-c2csc(C(F)(F)F)c2COc2c(F)cc(CCC(=O)O)cc2F)cn1 [Cpd 42, 3-(3,5-difluoro-4-((4-(6-methoxypyridin-3-yl)-2-(trifluoromethyl)thiophen-3-yl)methoxy)phenyl)propanoic acid]
pEC50 [1]: 6.35
pEC50 [2]: 6.84

CCc1ccc(-c2cscc2COc2ccc(CCC(=O)O)c(F)c2F)cc1 [Cpd 43, 3-(4-((4-(4-ethylphenyl)thiophen-3-yl)methoxy)-2,3-difluorophenyl)propanoic acid]
pEC50 [1]: 6.23
pEC50 [2]: 6.83

O=C(O)CCc1cc(F)c(OCc2c(-c3ccc4c(c3)OCO4)csc2C(F)(F)F)c(F)c1 [Cpd 44, 3-(4-((4-(benzo[d][1,3]dioxol-5-yl)-2-(trifluoromethyl)thiophen-3-yl)methoxy)-3,5-difluorophenyl)propanoic acid]
pEC50 [1]: 6.34
pEC50 [2]: 6.82

COc1ccc(-c2csc(C(F)(F)F)c2COc2c(F)cc(CCCO)cc2F)cc1 [Cpd 45, 3-(3,5-difluoro-4-((4-(4-methoxyphenyl)-2-(trifluoromethyl)thiophen-3-yl)methoxy)phenyl)propan-1-ol]
pEC50 [1]: 6.91
pEC50 [2]: 6.81

OCCCc1cc(F)c(OCc2c(-c3ccc(Cl)cc3)csc2C(F)(F)F)c(F)c1 [Cpd 46, 3-(4-[[4-(4-chlorophenyl)-2-(trifluoromethyl)thiophen-3-yl]methoxy]-3,5-difluorophenyl)propan-1-ol]
pEC50 [1]: 6.90
pEC50 [2]: 6.78

CCc1ccc(-c2sccc2COc2ccc(CCC(=O)O)c(F)c2F)cc1 [Cpd 48, 3-(4-((2-(4-ethylphenyl)thiophen-3-yl)methoxy)-2,3-difluorophenyl)propanoic acid]
pEC50 [1]: 6.63
pEC50 [2]: 6.77

CCc1ccc(-c2sccc2COc2ccc(CCC(=O)O)c(C)c2C)cc1 [Cpd 49, 3-(4-((2-(4-ethylphenyl)thiophen-3-yl)methoxy)-2,3-dimethylphenyl)propanoic acid]
pEC50 [1]: 6.52
pEC50 [2]: 6.77

O=C(O)CCc1cc(F)c(OCc2c(-c3ccc(Cl)cc3)csc2C(F)(F)F)c(F)c1F [Cpd 50, 3-(4-((4-(4-chlorophenyl)-2-(trifluoromethyl)thiophen-3-yl)methoxy)-2,3,5-trifluorophenyl)propanoic acid]
pEC50 [1]: 7.00
pEC50 [2]: 6.77

O=C(O)CCc1cc(F)c(OCc2c(-c3ccc4c(c3)CCO4)csc2C(F)(F)F)c(F)c1 [Cpd 51, 3-(4-((4-(2,3-dihydrobenzofuran-5-yl)-2-(trifluoromethyl)thiophen-3-yl)methoxy)-3,5-difluorophenyl)propanoic acid]
pEC50 [1]: 6.67
pEC50 [2]: 6.76

CCc1ccc(-c2sccc2COc2c(F)cc(CCC(=O)O)cc2F)cc1 [Cpd 52, 3-(4-((2-(4-ethylphenyl)thiophen-3-yl)methoxy)-3,5-difluorophenyl)propanoic acid]
pEC50 [1]: 6.46
pEC50 [2]: 6.74

CCc1ccc(-c2cscc2COc2c(F)cc(CCC(=O)O)cc2F)cc1 [Cpd 53, 3-(4-((4-(4-ethylphenyl)thiophen-3-yl)methoxy)-3,5-difluorophenyl)propanoic acid]
pEC50 [1]: 6.18
pEC50 [2]: 6.72

OCCCc1cc(F)c(OCc2c(-c3ccc(Cl)cc3)csc2C(F)(F)F)c(F)c1F [Cpd 56, 3-(4-((4-(4-chlorophenyl)-2-(trifluoromethyl)thiophen-3-yl)methoxy)-2,3,5-trifluorophenyl)propan-1-ol]
pEC50 [1]: 6.97
pEC50 [2]: 6.63

Cc1c(CCC(=O)O)ccc(OCc2c(-c3ccc(F)cc3)csc2C(F)(F)F)c1C [Cpd 58, 3-(4-((4-(4-fluorophenyl)-2-(trifluoromethyl)thiophen-3-yl)methoxy)-2,3-dimethylphenyl)propanoic acid]
pEC50 [1]: 6.19
pEC50 [2]: 6.53

CCc1ccc(-c2snc(Cl)c2COc2ccc(CCC(=O)O)c(F)c2F)cc1 [Cpd 66, 3-(4-[[3-chloro-5-(4-ethylphenyl)-1,2-thiazol-4-yl]methoxy]-2,3-difluorophenyl)propanoic acid]
pEC50 [1]: 6.97
pEC50 [2]: 7.72
